{
  "source": "patent US5714615A",
  "about": "(priority 1994, dated 1998)",
  "key": {"AChE": {"tested_on": "AChE", "type": "biochemical, electric eel and human"}, "DMTS performance": {"tested_on": "DMTS performance", "details": "monkey, in vivo; cited from earlier work"}, "GA": {"tested_on": "GA", "design": "species or system Male ICR mice", "details": "mouse, in vivo"}, "[1]": {"details": "mouse, in vivo"}, "[2]": {"target": "T1, electric eel acetylcholinesterase (Electrophorus electricus, UniProt O42275)", "T1 sequence (O42275 24-633)": "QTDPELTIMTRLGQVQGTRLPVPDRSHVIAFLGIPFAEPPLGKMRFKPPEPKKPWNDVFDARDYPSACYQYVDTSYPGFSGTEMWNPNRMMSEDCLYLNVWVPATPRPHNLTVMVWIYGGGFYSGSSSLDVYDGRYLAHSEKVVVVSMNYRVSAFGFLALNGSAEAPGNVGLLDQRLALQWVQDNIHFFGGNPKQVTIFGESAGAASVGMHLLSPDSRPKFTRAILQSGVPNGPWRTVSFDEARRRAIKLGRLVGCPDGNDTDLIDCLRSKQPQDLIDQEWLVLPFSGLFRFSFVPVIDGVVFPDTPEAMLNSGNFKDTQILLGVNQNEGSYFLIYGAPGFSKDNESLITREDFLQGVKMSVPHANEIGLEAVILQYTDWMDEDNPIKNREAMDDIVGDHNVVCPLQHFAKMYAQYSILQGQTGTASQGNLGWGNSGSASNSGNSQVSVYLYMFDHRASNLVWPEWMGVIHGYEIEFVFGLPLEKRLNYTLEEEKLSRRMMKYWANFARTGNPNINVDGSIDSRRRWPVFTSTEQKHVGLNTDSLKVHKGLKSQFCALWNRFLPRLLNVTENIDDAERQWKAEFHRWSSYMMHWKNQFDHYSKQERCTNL", "type": "biochemical", "details": "0.1m phosphate buffer"}, "[3]": {"target": "human erythrocyte acetylcholinesterase (Homo sapiens, UniProt P22303)", "sequence (P22303-2 with tags, fused parts or gaps limits assumed)": "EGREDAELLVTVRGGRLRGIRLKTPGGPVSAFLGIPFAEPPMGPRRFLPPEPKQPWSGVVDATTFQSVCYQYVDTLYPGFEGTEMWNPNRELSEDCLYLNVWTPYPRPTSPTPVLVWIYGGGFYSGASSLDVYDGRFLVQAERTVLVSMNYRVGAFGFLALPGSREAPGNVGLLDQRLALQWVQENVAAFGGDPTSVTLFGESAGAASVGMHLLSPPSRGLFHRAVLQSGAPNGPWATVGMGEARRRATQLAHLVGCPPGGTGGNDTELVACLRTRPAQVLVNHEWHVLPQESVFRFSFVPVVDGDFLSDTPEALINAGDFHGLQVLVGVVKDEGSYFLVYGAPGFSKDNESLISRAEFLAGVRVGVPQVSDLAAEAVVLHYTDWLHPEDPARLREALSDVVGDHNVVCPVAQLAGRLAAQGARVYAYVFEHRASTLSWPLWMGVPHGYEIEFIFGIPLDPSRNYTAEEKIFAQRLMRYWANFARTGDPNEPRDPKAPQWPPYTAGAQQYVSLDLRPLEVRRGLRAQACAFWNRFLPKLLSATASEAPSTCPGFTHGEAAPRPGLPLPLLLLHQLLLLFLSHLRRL", "type": "biochemical", "details": "erythrocyte ache"}, "nicotinic receptor": {"target": "nicotinic receptor (Rattus norvegicus, UniProt P09483+P12390)", "sequence (P12390 25-500)": "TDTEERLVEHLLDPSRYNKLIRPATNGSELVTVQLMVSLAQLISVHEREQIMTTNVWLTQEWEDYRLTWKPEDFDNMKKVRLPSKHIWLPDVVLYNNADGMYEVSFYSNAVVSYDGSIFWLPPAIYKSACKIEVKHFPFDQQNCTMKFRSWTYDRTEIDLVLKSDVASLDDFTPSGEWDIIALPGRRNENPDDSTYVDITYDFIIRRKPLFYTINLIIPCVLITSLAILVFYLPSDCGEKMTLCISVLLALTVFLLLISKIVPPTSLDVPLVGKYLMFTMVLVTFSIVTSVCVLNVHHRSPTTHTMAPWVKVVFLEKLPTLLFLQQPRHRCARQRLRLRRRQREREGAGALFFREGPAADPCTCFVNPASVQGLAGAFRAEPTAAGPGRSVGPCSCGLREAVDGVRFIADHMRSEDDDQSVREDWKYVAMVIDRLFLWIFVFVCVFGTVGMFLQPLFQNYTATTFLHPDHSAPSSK", "sequence (P09483 31-630)": "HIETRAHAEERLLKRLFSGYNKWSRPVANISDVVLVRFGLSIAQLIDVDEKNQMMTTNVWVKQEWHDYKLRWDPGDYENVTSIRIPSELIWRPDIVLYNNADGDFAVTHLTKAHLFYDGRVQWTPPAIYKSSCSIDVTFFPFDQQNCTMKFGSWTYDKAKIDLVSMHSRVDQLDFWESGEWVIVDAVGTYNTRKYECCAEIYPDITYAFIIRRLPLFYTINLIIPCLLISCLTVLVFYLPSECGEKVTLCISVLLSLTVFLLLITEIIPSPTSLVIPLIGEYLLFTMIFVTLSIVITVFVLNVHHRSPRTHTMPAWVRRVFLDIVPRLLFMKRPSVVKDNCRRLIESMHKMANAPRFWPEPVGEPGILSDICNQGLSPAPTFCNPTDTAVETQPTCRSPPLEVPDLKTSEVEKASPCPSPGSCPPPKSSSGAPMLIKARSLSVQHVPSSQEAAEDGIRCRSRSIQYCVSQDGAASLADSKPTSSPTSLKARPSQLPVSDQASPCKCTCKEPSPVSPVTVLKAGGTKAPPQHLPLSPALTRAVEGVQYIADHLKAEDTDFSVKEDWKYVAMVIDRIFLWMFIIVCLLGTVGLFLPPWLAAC", "experiment": "biochemical", "type": "binding"}, "[4]": {"target": "T1, electric eel acetylcholinesterase", "details": "cited from earlier work"}, "electric eel AChE": {"target": "electric eel AChE (Electrophorus electricus, UniProt O42275)", "sequence (O42275 24-633)": "as the sequence (O42275 24-633) above", "type": "biochemical"}, "human erythrocyte AChE": {"target": "human erythrocyte AChE (Homo sapiens, UniProt P22303)", "sequence (P22303-2 with tags, fused parts or gaps limits assumed)": "as the sequence (P22303-2 with tags, fused parts or gaps limits assumed) above", "type": "biochemical"}, "in vivo": {"experiment": "in vivo", "details": "mouse, po"}},
  "note": "“Also recorded” adds a separate entry of the source.",
  "data": [
    {"smiles": "C[n+]1cccc(O)c1C=NNC(=O)Nc1ccccc1.[Cl-]", "note": "[Compound 3b, 3-Hydroxy-1-methyl-2-[[(N-phenylaminocarbonyl)hydrazono]methyl] pyridinium chloride]", "values": [
      {"measurement": "mode of inhibition of AChE", "setting": "AChE", "value": "mixed-type inhibition; also recorded: noncompetitive kinetics"}
    ]},
    {"smiles": "COc1ccc(CON=Cc2c(O)ccc[n+]2C)cc1", "note": "[Compound 1e, O-(p-Methoxybenzyl)-N-(3-hydroxy-1-methyl-2-pyridinemethylene) hydroxylamine chloride]", "values": [
      {"measurement": "mode of inhibition of AChE", "setting": "AChE", "value": "pure competitive inhibition"}
    ]},
    {"smiles": "CN1CCCC1c1cccnc1", "note": "(stereo not shown) [Nicotine]", "values": [
      {"measurement": "improvement in DMTS performance", "setting": "DMTS performance", "value": "5-10 % points"}
    ]},
    {"smiles": "C[n+]1cc(O)ccc1C=NO", "note": "[Compound 1g]", "values": [
      {"measurement": "% survival", "setting": "GA", "value": 0, "unit": "%"},
      {"measurement": "comparative drug toxicity", "setting": "[1]", "value": "small increase in toxicity"}
    ]},
    {"smiles": "C[n+]1cccc(O)c1C=NOCc1ccccc1", "note": "[Compound 1b, O-Benzyl-N-(3-hydroxy-1-methyl-2-pyridinemethylene) hydroxylamine chloride]", "values": [
      {"measurement": "mode of inhibition of AChE", "setting": "AChE", "value": "pure competitive inhibition"},
      {"measurement": "comparative drug toxicity", "setting": "[1]", "value": 1, "unit": "b>1c"}
    ]},
    {"smiles": "C[n+]1ccccc1C=NNC(=O)C[n+]1ccccc1", "note": "[Compound 5b, 2-(1-Methyl-2-pyridinemethylene)-1-[2-(1-pyridinium)acetyl] hydrazine dichloride]", "values": [
      {"measurement": "mode of inhibition of AChE", "setting": "AChE", "value": "mixed-type inhibition; also recorded: At concentrations up to 75 μM, 5b acts as a noncompetitive inhibitor; also recorded: at higher concentrations, 5b is an uncompetitive inhibitor"}
    ]},
    {"smiles": "CNC(=O)Oc1ccc2c(c1)[C@]1(C)CCN(C)[C@@H]1N2C", "note": "[Physostigmine]", "values": [
      {"measurement": "kobs/[I] (eel)", "setting": "[2]", "value": 140000, "unit": "M⁻¹ s⁻¹"},
      {"measurement": "kobs/[I] (human)", "setting": "[3]", "value": 19000, "unit": "M⁻¹ s⁻¹"},
      {"measurement": "binding to nicotinic receptors", "setting": "nicotinic receptor", "value": "no selective binding to nicotinic receptors, even at mM concentrations"},
      {"measurement": "kobs/[I] (literature value, footnote to eel column)", "setting": "[4]", "value": 18500, "unit": "M⁻¹ s⁻¹"},
      {"measurement": "delay intervals at which DMTS is improved", "setting": "DMTS performance", "value": "acts more evenly across short, medium and long delays"},
      {"measurement": "duration of DMTS response", "setting": "DMTS performance", "value": "evokes responses only on the day of administration"},
      {"measurement": "improvement in DMTS performance", "setting": "DMTS performance", "value": "5-10 % points"}
    ]},
    {"smiles": "CN(C)C(=O)Oc1ccc[n+](C)c1", "note": "[Pyridostigmine, pyridostigmine]", "values": [
      {"measurement": "kobs/[I] (literature value, footnote to eel column)", "setting": "[4]", "value": 843, "unit": "M⁻¹ s⁻¹"}
    ]},
    {"smiles": "C[n+]1cccc(O)c1C=NOCc1ccc(Cl)cc1", "note": "[Compound 1d, O-(p-Chlorobenzyl)-N-(3-hydroxy-1-methyl-2-pyridinemethylene) hydroxylamine chloride]", "values": [
      {"measurement": "mode of inhibition of AChE", "setting": "AChE", "value": "pure competitive inhibition"}
    ]},
    {"smiles": "C[N+](C)(C)CCOC(N)=O", "note": "[Carbachol]", "values": [
      {"measurement": "IC50", "setting": "nicotinic receptor", "value": 699, "unit": "nM"},
      {"measurement": "potency less than nicotine", "setting": "nicotinic receptor", "value": "about 18 fold"}
    ]},
    {"smiles": "C[n+]1ccccc1C=NOCc1ccccc1", "note": "[Compound 1a, O-Benzyl-N-(1-methyl-2-pyridinemethylene) hydroxylamine chloride]", "values": [
      {"measurement": "mode of inhibition of AChE", "setting": "AChE", "value": "pure competitive inhibition"},
      {"measurement": "comparative drug toxicity", "setting": "[1]", "value": 1, "unit": "a>1b"}
    ]},
    {"smiles": "Clc1cccc(Cl)c1N=C1NCCN1", "note": "[Clonidine, clonidine]", "values": [
      {"measurement": "delay intervals at which DMTS is improved", "setting": "DMTS performance", "value": "improves DMTS performance to the greatest extent at medium delays"},
      {"measurement": "duration of DMTS improvement after administration", "setting": "DMTS performance", "value": "at least 24 hr"}
    ]},
    {"smiles": "C[n+]1cccc(O)c1C=NO", "note": "[Compound 1f]", "values": [
      {"measurement": "inhibition of electric eel AChE", "setting": "electric eel AChE", "value": "did not inhibit either enzyme at concentrations up to 1 mM"},
      {"measurement": "inhibition of human AChE", "setting": "human erythrocyte AChE", "value": "did not inhibit either enzyme at concentrations up to 1 mM"},
      {"measurement": "% survival", "setting": "GA", "value": 0, "unit": "%"},
      {"measurement": "comparative drug toxicity", "setting": "[1]", "value": "small increase in toxicity"}
    ]},
    {"smiles": "CON=Cc1c(O)ccc[n+]1C", "note": "[Compound 1c, O-Methyl-N-(3-hydroxy-1-methyl-2-pyridinemethylene) hydroxylamine chloride]", "values": [
      {"measurement": "inhibition of electric eel AChE", "setting": "electric eel AChE", "value": "did not inhibit either enzyme at concentrations up to 1 mM"},
      {"measurement": "inhibition of human AChE", "setting": "human erythrocyte AChE", "value": "did not inhibit either enzyme at concentrations up to 1 mM"},
      {"measurement": "% survival", "setting": "GA", "value": 0, "unit": "%"},
      {"measurement": "LD50 at 24 h", "setting": "in vivo", "value": "> 3200", "unit": "µmol/kg"}
    ]}
  ]
}
